Data set [1] relates to Smn protein. Briefly: Smn protein assay in cultured cells (SMN HTRF). The note with it: 48 hours; for EC1.5x (concentration giving 1.5-fold Smn protein increase): SMA Type 1 patient fibroblast cells (GM03813), 7-point concentration curve, SMN HTRF, concentration producing 1.5 times Smn protein vs DMSO vehicle control, read-out: EC1.5x for Smn protein expression; for maximum fold (Fold) increase of Smn protein: SMA patient fibroblast cells, 7-point concentration data, fold increase relative to vehicle control (SMN HTRF). The format is cell-based, human. In short, it runs like this: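 Lysates in RIPA with protease inhibitors are incubated overnight at room temperature with HTRF anti-SMN antibodies. EC1.5x is derived from fold increase in ΔF over vehicle.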

The test system of data set [2] is SMN2 minigene (full length SMN2 minigene mRNA containing SMN2 exon 7). Kind of data set: SMN2 minigene mRNA splicing RT-qPCR assay in cultured cells. Type of data set: cell-based, human. The note with it: Homo sapiens, HEK293-H, read-out: EC1.5x for production of full length SMN2 mRNA. In short, it runs like this: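 HEK293H cells stably carrying the SMN2-A minigene treated 24 h at 37° C with compound (DMSO, 200× stock), then lysed. Multiplex RT-qPCR (SMN primers 0.4 μM final; 40 cycles) measures full-length exon 7-containing minigene mRNA, normalized to GAPDH and to vehicle; EC1.5x derived and binned by stars.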

[3] abbreviates: HEK293H cells stably transfected with SMN2-A minigene, 24 hours, 7-point concentration curve, 1.5-fold relative to vehicle-treated cells.

Read-outs that look alike come from different tables or passages of the source.

As usually defined, the melting point is the temperature of the solid-liquid transition.

`Cc1cn2cc(-c3cc4ccc(CCNC(C)C)cc4oc3=O)nc2c(C)n1` [Compound 865, 3-(6,8-dimethylimidazo[1,2-a]pyrazin-2-yl)-7-[2-(propan-2-ylamino)ethyl]-2H-chromen-2-one] displayed a melting point of 192 to 197 °C. Also, in data set [1], the EC1.5x (concentration giving 1.5-fold Smn protein increase) lay within 1000 to 3000 nM; the “maximum fold (Fold) increase of Smn protein” value (“maximum fold (Fold) increase” below) was “**** (fold increase between >1.5 and ≤1.65)”. In addition, the EC (1.5-fold) in data set [2] (setting [3]) was under 0.1 µM.

`CCN1C[C@@H]2C[C@H]1CN2c1ccc2cc(-c3cn4cc(Cl)nc(C)c4n3)c(=O)oc2c1` [Compound 791, 3-(6-chloro-8-methylimidazo[1,2-a]pyrazin-2-yl)-7-[(1S,4S)-5-ethyl-2,5-diazabicyclo[2.2.1]hept-2-yl]-2H-chromen-2-one] gave a melting point of 135 to 138 °C. In data set [1], the EC1.5x (concentration giving 1.5-fold Smn protein increase) was in the range of 1000 to 3000 nM; the “maximum fold (Fold) increase” value was “*** (fold increase between >1.35 and ≤1.5)”. Further, the EC (1.5-fold) in data set [2] (setting [3]) is under 0.1 µM.

Take `C[C@@H]1CN(c2ccc3cc(-c4cn5ccsc5n4)c(=O)oc3c2)C[C@H](C)N1` [Compound 167, 7-[(3R,5S)-3,5-dimethylpiperazin-1-yl]-3-(imidazo[2,1-b][1,3]thiazol-6-yl)-2H-chromen-2-one]: the melting point was in the range of 263 to 265 °C. Moreover, the “maximum fold (Fold) increase” value in data set [1] is “** (fold increase between >1.2 and ≤1.35)”. Also, the EC (1.5-fold) in data set [2] (setting [3]) lay in the range of 0.3 to 1 µM.

For the compound `Cc1cn2cc(-c3cc4ccc(N5C[C@@H](C)N[C@@H](C)C5)cc4oc3=O)cc2cn1` [Compound 584, 7-[(3R,5S)-3,5-dimethylpiperazin-1-yl]-3-(3-methylpyrrolo[1,2-a]pyrazin-7-yl)-2H-chromen-2-one], the melting point was in the range of 172 to 174 °C. In addition, in data set [1], the EC1.5x (concentration giving 1.5-fold Smn protein increase) is under 300 nM and the “maximum fold (Fold) increase” value is “***** (fold increase >1.65)”. The EC (1.5-fold) in data set [2] (setting [3]) is under 0.1 µM.

Turning to `O=c1oc2cc(N3CCNCC3)ccc2cc1-c1cc(F)cc(F)c1` [Compound 291, 3-(3,5-difluorophenyl)-7-(piperazin-1-yl)-2H-chromen-2-one], the melting point was 202 to 206 °C. Further, the “maximum fold (Fold) increase” value in data set [1] was “* (maximum fold increase of ≤1.2)”. In addition, the EC (1.5-fold) in data set [2] (setting [3]) is 0.3 to 1 µM.

`Cc1cn2cc(-c3cc4ccc(CCNC(CO)CO)cc4oc3=O)nc2c(C)n1` [Compound 873, 7-{2-[(1,3-dihydroxypropan-2-yl)amino]ethyl}-3-(6,8-dimethylimidazo[1,2-a]pyrazin-2-yl)-2H-chromen-2-one]: the melting point lay in the range of 217 to 221 °C. In data set [1], the EC1.5x (concentration giving 1.5-fold Smn protein increase) was 300 to 1000 nM; the “maximum fold (Fold) increase” value was “**** (fold increase between >1.5 and ≤1.65)”. Moreover, the EC (1.5-fold) in data set [2] (setting [3]) was under 0.1 µM.

Compound `C[C@H]1CN(c2ccc3cc(-c4nc(C(F)(F)F)cs4)c(=O)oc3c2)CCN1` [Compound 239, 7-[(3S)-3-methylpiperazin-1-yl]-3-[4-(trifluoromethyl)-1,3-thiazol-2-yl]-2H-chromen-2-one] registered a melting point of 234 to 238 °C. For the same compound, in data set [1], the “maximum fold (Fold) increase” value was “* (maximum fold increase of ≤1.2)”. Besides, in data set [2] (setting [3]), the EC (1.5-fold) lay in the range of 1 to 3 µM.

Take `Cc1cn2cc(-c3cc4ccc(N5C[C@H]6CCCN[C@H]6C5)cc4oc3=O)nc2cn1` [Compound 719, 3-(6-methylimidazo[1,2-a]pyrazin-2-yl)-7-[(4aR,7aR)-octahydro-6H-pyrrolo[3,4-b]pyridin-6-yl]-2H-chromen-2-one]: the melting point fell in the range of 282 to 291 °C. Moreover, the “maximum fold (Fold) increase” value in data set [1] is “** (fold increase between >1.2 and ≤1.35)”. Further, in data set [2] (setting [3]), the EC (1.5-fold) is under 0.1 µM.

On to `O=c1oc2cc(N3CCNCC3)ccc2cc1-c1ccnc(Cl)c1` [Compound 180, 3-(2-chloropyridin-4-yl)-7-(piperazin-1-yl)-2H-chromen-2-one], for which the melting point was in the range of 190 to 192 °C. The “maximum fold (Fold) increase” value in data set [1] is “* (maximum fold increase of ≤1.2)”. Further, in data set [2] (24 h), the EC (1.5-fold) was under 0.1 µM.

Compound `CC1(C)CN(c2ccc3cc(-c4cn5cc(F)ccc5n4)c(=O)oc3c2)CCN1` [Compound 508, 7-(3,3-dimethylpiperazin-1-yl)-3-(6-fluoroimidazo[1,2-a]pyridin-2-yl)-2H-chromen-2-one] came in with a melting point of 182 to 185 °C. Moreover, the “maximum fold (Fold) increase” value in data set [1] is “** (fold increase between >1.2 and ≤1.35)”. In addition, the EC (1.5-fold) in data set [2] (setting [3]) was in the range of 0.3 to 1 µM.

Consider `Cc1cc(F)cn2cc(-c3cc4ccc(N5CCN(C)CC5)cc4oc3=O)nc12` [Compound 329, 3-(6-fluoro-8-methylimidazo[1,2-a]pyridin-2-yl)-7-(4-methylpiperazin-1-yl)-2H-chromen-2-one], for which the melting point fell in the range of 223 to 233 °C. The “maximum fold (Fold) increase” value in data set [1] is reported as “* (maximum fold increase of ≤1.2)”. Besides, the EC (1.5-fold) in data set [2] (setting [3]) is 0.3 to 1 µM.

In turn, `O=c1oc2cc(N3CCNCC3)ccc2cc1-c1cn2ccsc2n1` [Compound 88, 3-(imidazo[2,1-b][1,3]thiazol-6-yl)-7-(piperazin-1-yl)-2H-chromen-2-one] yielded a melting point of 275 to 280 °C. In data set [1], the EC1.5x (concentration giving 1.5-fold Smn protein increase) lay within 1000 to 3000 nM; the “maximum fold (Fold) increase” value is “*** (fold increase between >1.35 and ≤1.5)”. Moreover, in data set [2] (setting [3]), the EC (1.5-fold) is under 0.1 µM.

As for `COc1cc(-c2cc3ccc(N4CCN(C)CC4)cc3oc2=O)ccn1` [Compound 165, 3-(2-methoxypyridin-4-yl)-7-(4-methylpiperazin-1-yl)-2H-chromen-2-one], the melting point lay in the range of 169 to 171 °C. For the same compound, the “maximum fold (Fold) increase” value in data set [1] was “** (fold increase between >1.2 and ≤1.35)”. Also, the EC (1.5-fold) in data set [2] (setting [3]) fell in the range of 3 to 30 µM.

`Cc1cc(Cl)c2nc(-c3cc4ccc(N5CCCN(C)CC5)cc4oc3=O)cn2c1` [Compound 344, 3-(8-chloro-6-methylimidazo[1,2-a]pyridin-2-yl)-7-(4-methyl-1,4-diazepan-1-yl)-2H-chromen-2-one] yielded a melting point of 224 to 230 °C. Also, the “maximum fold (Fold) increase” value in data set [1] is “** (fold increase between >1.2 and ≤1.35)”. The EC (1.5-fold) in data set [2] (setting [3]) was in the range of 0.3 to 1 µM.

In turn, `Cc1cn2cc(-c3cc4ccc(N5C[C@@H]6CCN(C)[C@@H]6C5)cc4oc3=O)nc2c(C)n1` [Compound 706, 3-(6,8-dimethylimidazo[1,2-a]pyrazin-2-yl)-7-[(3aS,6aS)-1-methylhexahydropyrrolo[3,4-b]pyrrol-5(1H)-yl]-2H-chromen-2-one] came in with a melting point of 252 to 262 °C. Moreover, in data set [1], the EC1.5x (concentration giving 1.5-fold Smn protein increase) was in the range of 300 to 1000 nM; the “maximum fold (Fold) increase” value was “**** (fold increase between >1.5 and ≤1.65)”. In data set [2] (setting [3]), the EC (1.5-fold) was under 0.1 µM.

The compound `Cc1cn2cc(-c3cc4ccc(N5CCN(CC(C)(C)O)CC5)cc4oc3=O)nc2c(C)n1` [Compound 962, 3-(6,8-dimethylimidazo[1,2-a]pyrazin-2-yl)-7-[4-(2-hydroxy-2-methylpropyl)piperazin-1-yl]-2H-chromen-2-one] returned a melting point of 212 to 214 °C. In data set [1], the EC1.5x (concentration giving 1.5-fold Smn protein increase) was under 300 nM and the “maximum fold (Fold) increase” value was “***** (fold increase >1.65)”. For the same compound, the EC (1.5-fold) in data set [2] (setting [3]) is under 0.1 µM.

Turning to `O=c1oc2cc(N3CCNCC3)ccc2cc1-c1noc(-c2ccccc2)n1` [Cpd 50, 3-(5-phenyl-1,2,4-oxadiazol-3-yl)-7-(piperazin-1-yl)-2H-chromen-2-one], the melting point is 214 to 221 °C. Moreover, the “maximum fold (Fold) increase” value in data set [1] is “* (maximum fold increase of ≤1.2)”. Further, in data set [2] (setting [3]), the EC (1.5-fold) lay within 1 to 3 µM.

As for `Cc1cccn2cc(-c3cc4ccc(N5CCN[C@@H](C)C5)cc4oc3=O)nc12` [Compound 248, 3-(8-methylimidazo[1,2-a]pyridin-2-yl)-7-[(3S)-3-methylpiperazin-1-yl]-2H-chromen-2-one], the melting point was 162 to 166 °C. Further, in data set [1], the EC1.5x (concentration giving 1.5-fold Smn protein increase) lay in the range of 1000 to 3000 nM; the “maximum fold (Fold) increase” value is “** (fold increase between >1.2 and ≤1.35)”. In addition, the EC (1.5-fold) in data set [2] (setting [3]) was in the range of 0.1 to 0.3 µM.

Turning to `CN1CCCN(c2ccc3cc(-c4cn5cnccc5n4)c(=O)oc3c2)CC1` [Compound 460, 3-(imidazo[1,2-c]pyrimidin-2-yl)-7-(4-methyl-1,4-diazepan-1-yl)-2H-chromen-2-one], the melting point is 225 to 227 °C. Further, in data set [1], the EC1.5x (concentration giving 1.5-fold Smn protein increase) is 3000 to 10000 nM; the “maximum fold (Fold) increase” value is “*** (fold increase between >1.35 and ≤1.5)”. Also, the EC (1.5-fold) in data set [2] (setting [3]) lay within 0.1 to 0.3 µM.

In the case of `Cc1cn2cc(-c3cc4ccc(OCCNCC(C)O)cc4oc3=O)nc2c(C)n1` (stereo not shown) [Compound 961, 3-(6,8-dimethylimidazo[1,2-a]pyrazin-2-yl)-7-{2-[(2-hydroxypropyl)amino]ethoxy}-2H-chromen-2-one], the melting point lay within 185 to 188 °C. Besides, in data set [1], the EC1.5x (concentration giving 1.5-fold Smn protein increase) is under 300 nM; the “maximum fold (Fold) increase” value is “*** (fold increase between >1.35 and ≤1.5)”. Moreover, the EC (1.5-fold) in data set [2] (setting [3]) was under 0.1 µM.

`COc1cc(OC)cc(-c2cc3ccc(N4CCCN(C)CC4)cc3oc2=O)c1` [Compound 411, 3-(3,5-dimethoxyphenyl)-7-(4-methyl-1,4-diazepan-1-yl)-2H-chromen-2-one] returned a melting point of 151 to 153 °C. For the same compound, in data set [1], the “maximum fold (Fold) increase” value is given as “* (maximum fold increase of ≤1.2)”. Also, the EC (1.5-fold) in data set [2] (setting [3]) is 3 to 30 µM.

(Values after patent USRE47689E1, “Compounds for treating spinal muscular atrophy” (PTC Therapeutics, Inc., priority 2011, dated 2019).)
